Columns and labels:
[1] = system: P. aeruginosa, PAM1723, overexpressing the MexAB-OprM efflux pump; experiment: Levofloxacin potentiation checkerboard assay (broth microdilution); assay type: cell-based
Description: Stock solution was stored at −80° C.
The checkerboard assay was performed in microtiter plates. […] EPIs were diluted in the y axis, each row containing an equal concentration of an EPI. The result of these manipulations was that each well of the microtiter plate contains a unique combination of concentrations of the two agents. The assay was performed in MHB with a final bacterial inoculum of 5×10^5 CFU/ml (from an early-log phase culture). Microtiter plates were incubated during 20 h at 35° C. and were read using a microtiterplate reader (Molecular Devices) at 650 nm as well as visual observation using a microtiter plate-reading mirror.

[2] = system: P. aeruginosa strain PAM1723 overexpressing MexAB-OprM efflux pump; experiment: Neutropenic mice thigh model of PA infection; assay type: in vivo; settings: levofloxacin 30 mg/kg SQ, EPI 60 mg/kg IP, 2 hours post-infection
Description: Efficacy of the EPIs was evaluated in a Neutropenic Mice Thigh Model of P. aeruginosa Infection. Neutropenia was induced by cyclophosphamide 100 mg/kg IP on days 3 and 1 prior to infection. P. aeruginosa strain PAM1723 overexpressing MexAB-OprM efflux pump was grown overnight in Mueller-Hinton Broth (MHB). The next day, the overnight culture was diluted in fresh MHB and was allowed to re-grow to ˜10^8 CFU/mL (OD600˜0.3). The culture was spun down, washed twice with phosphate buffered saline (PBS) and re-suspend in PBS to ˜4×10^6 CFU/mL. Next, this culture was mixed 1:1 with 14% hog-gastric mucin in PBS to give a final inoculum of 2×10^6 CFU/mL. Infection was initiated with injection of 0.1 mL of inoculum (˜2×10^5 CFU/thigh) directly into both thighs of each mouse. Two mice from each treatment group were euthanized at various times after the start of treatment. The thighs were removed aseptically, homogenized in saline, and immediately plated to determine bacterial load (CFU/ml). Treatment was initiated 2 hours post infection.

[3] = system: P. aeruginosa strain PAM1032 overexpressing MexAB-OprM efflux pump; experiment: Mouse sepsis model of PA infection (ED50 of levofloxacin); assay type: in vivo; settings: EPI at 50 mg/kg IP; survival at 24 hours
Description: P. aeruginosa strain PAM1032 overexpressing MexAB-OprM efflux pump was grown overnight in Mueller-Hinton Broth (MHB). The next day, the overnight culture was diluted in fresh MHB and was allowed to re-grow to ˜10^8 CFU/mL (OD600˜0.3). The culture was spun down, washed twice with phosphate buffered saline (PBS) and re-suspend in PBS to ˜1.2×10^7 CFU/mL (OD=0.12). Next this culture was mixed 1:1 with 14% hog-gastric mucin in PBS to give a final inoculum of […].
The effect of the EPI at 50 mg/kg was determined according to the following experimental design: […]

[4] = Rat serum pharmacokinetics after 2-hour IV infusion; assay type: in vivo; settings: serum, 2-hour IV infusion, total dose 10 mg/kg, two-compartment model
Description: Rat serum pharmacokinetics of compounds 1, 3, 7, and 21 was evaluated after 2-hour IV infusion of 1 mg/ml EPI solution in 0.9% saline. Total infused dose was 10 mg/kg. FIG. 12 depicts the serum concentrations as a function of time. A two-compartment model was used to fit the data and calculate PK parameters.

Stability in human serum = assay type: in vitro ADME; settings: in words
Description: FIG. 9 compares the stability of compounds 1 and 3 in human serum as a function of time. Both compound 1 and compound 3 were stable after 18 hours of incubation with human serum.

[5] = Tissue levels after 2-hour IV infusion in rats; assay type: in vivo, rat; settings: for concentration at 4 h: 2 h after end of 2-hour IV infusion; for concentration at 4 h / concentration at 2 h / concentration at 6 h: 10 mg/kg; for concentration at 2 h: end of 2-hour IV infusion; for tissue levels and clearance from tissues after 2-hour IV infusion: rat, in words; for concentration at 6 h: 4 h after end of 2-hour IV infusion
Description: Levels of EPIs in various tissues were evaluated after 2-hour IV infusion in rats. The rats received 10 mg/kg IV infusion through FVC. Animals were divided into 2 groups: group 1 was sacrificed immediately after the end of infusion and group 2, 2 h or 4 h after the end of infusion. Tissues from each animal were collected, homogenized and compounds were extracted. Tissues were mixed with saline at 1:1 ratio (v/w) in 12×75 mm polypropylene round bottom tubes. The mixtures were homogenized with a Polytron homogenizer (on ice, 3×10-15 seconds with 30 seconds intervals at the setting of 7). 50 μl of homogenized tissue were immediately transferred to an Eppendorf tube and 2-volumes of 4% TCA were added. After vortexing for 30 seconds, the tubes were centrifuged in a microfuge at top speed (13.2 k rpm) for 5 minutes. The supernatant was collected, and 45 μl of the supernatant was transferred to a glass LC/MS/MS vial (Kimble, 11 mm, 1.5 ml) for analysis, which allowed determination of tissue levels of EPIs at the end of the infusion and 2 h or 4 h later.

## NCCC[C@@H](N)C(=O)N[C@H](CCc1ccccc1)C(=O)Nc1cnc2ccccc2c1 [Compound 1, 2-(R),5-Diamino-pentanoic acid [3-phenyl-1-(R)-(quinolin-3-ylcarbamoyl)-propyl]-amide]
[1]; EPI 0 μg/ml (levofloxacin alone)
  Antibiotic (levofloxacin) MIC in the presence of EPI: 2 µg/mL
[1]; EPI 1.25 μg/ml
  Antibiotic (levofloxacin) MIC in the presence of EPI: 2 µg/mL
[1]; EPI 5 μg/ml
  Antibiotic (levofloxacin) MIC in the presence of EPI: 0.5 µg/mL
[1]; EPI 10 μg/ml
  Antibiotic (levofloxacin) MIC in the presence of EPI: 0.06 µg/mL
[1]; EPI 20 μg/ml
  Antibiotic (levofloxacin) MIC in the presence of EPI: 0.03 µg/mL
[1]; EPI 40 μg/ml
  Antibiotic (levofloxacin) MIC in the presence of EPI: 0.015 µg/mL
[1]; EPI 80 μg/ml
  Antibiotic (levofloxacin) MIC in the presence of EPI: 0.008 µg/mL
[1]; EPI […]
  Antibiotic (levofloxacin) MIC in the presence of EPI: 1 µg/mL
[1]; EPI concentration necessary to increase susceptibility to levofloxacin eight-fold
  MPC8: 10 µg/mL
[2]
  bacterial load in thighs, EPI with levofloxacin versus levofloxacin alone: significantly enhanced activity of levofloxacin
[3]
  decrease of ED50 of levofloxacin: 4 fold
[4]
  clearance: 24 mL/min/kg
Stability in human serum
  stability after 18 hours of incubation with human serum: stable
[5]; rat brain concentration
  2 h/4 h Ratio: 1.34
[5]; rat brain
  concentration at 4 h: 130 ng/mL
  concentration at 2 h: 180 ng/mL
[5]; rat heart concentration
  2 h/4 h Ratio: 0.93
[5]; rat heart
  concentration at 4 h: 2340 ng/mL
  concentration at 2 h: 2180 ng/mL
[5]; rat kidney concentration
  2 h/4 h Ratio: 1.66
[5]; rat kidney
  concentration at 4 h: 29600 ng/mL
  concentration at 2 h: 49300 ng/mL
[5]; rat liver concentration
  2 h/4 h Ratio: 0.99
[5]; rat liver
  concentration at 4 h: 10600 ng/mL
  concentration at 2 h: 10600 ng/mL
[5]; rat lung concentration
  2 h/4 h Ratio: 1.55
[5]; rat lung
  concentration at 4 h: 4180 ng/mL
  concentration at 2 h: 6500 ng/mL
[5]; rat muscle concentration
  2 h/4 h Ratio: 1.59
[5]; rat muscle
  concentration at 4 h: 2860 ng/mL
  concentration at 2 h: 4540 ng/mL
[5]; rat pancreas concentration
  2 h/4 h Ratio: 1.34
[5]; rat pancreas
  concentration at 4 h: 4050 ng/mL
  concentration at 2 h: 5400 ng/mL
[5]; rat spleen concentration
  2 h/4 h Ratio: 1.35
[5]; rat spleen
  concentration at 4 h: 3710 ng/mL
  concentration at 2 h: 5010 ng/mL
[5]; rat testicles concentration
  2 h/4 h Ratio: 2.04
[5]; rat testicles
  concentration at 4 h: 280 ng/mL
  concentration at 2 h: 580 ng/mL
[5]; rat thymus concentration
  2 h/4 h Ratio: 1.23
[5]; rat thymus
  concentration at 4 h: 2760 ng/mL
  concentration at 2 h: 3410 ng/mL
[5]
  tissue levels and clearance from tissues after 2-hour IV infusion: High levels

## NCCC[C@H](N)C(=O)N[C@H](Cc1ccc(C(F)(F)F)cc1)C(=O)Nc1cnc2ccccc2c1 [Compound 21, 2-(S),5-Diamino-pentanoic acid [1-(R)-(quinolin-3-ylcarbamoyl)-2-(4-trifluoromethyl-phenyl)-ethyl]amide]
[2]
  bacterial load in thighs, EPI with levofloxacin versus levofloxacin alone: significantly enhanced activity of levofloxacin
[4]
  clearance: 16.2 mL/min/kg
[5]; rat brain concentration
  2 h/6 h Ratio: 16.37
[5]; rat brain
  concentration at 4 h: 470 ng/mL
  concentration at 6 h: 30 ng/mL
  concentration at 2 h: 490 ng/mL
[5]; rat heart concentration
  2 h/6 h Ratio: 7.33
[5]; rat heart
  concentration at 4 h: 1760 ng/mL
  concentration at 6 h: 720 ng/mL
  concentration at 2 h: 5250 ng/mL
[5]; rat kidney concentration
  2 h/6 h Ratio: 20.10
[5]; rat kidney
  concentration at 4 h: 20800 ng/mL
  concentration at 6 h: 2920 ng/mL
  concentration at 2 h: 58700 ng/mL
[5]; rat liver concentration
  2 h/6 h Ratio: 30.21
[5]; rat liver
  concentration at 4 h: 2320 ng/mL
  concentration at 6 h: 200 ng/mL
  concentration at 2 h: 5950 ng/mL
[5]; rat lung concentration
  2 h/6 h Ratio: 3.43
[5]; rat lung
  concentration at 6 h: 3900 ng/mL
  concentration at 2 h: 13400 ng/mL
[5]; rat muscle concentration
  2 h/6 h Ratio: 3.94
[5]; rat muscle
  concentration at 4 h: 1360 ng/mL
  concentration at 6 h: 1210 ng/mL
  concentration at 2 h: 4750 ng/mL
[5]; rat pancreas concentration
  2 h/6 h Ratio: 20.73
[5]; rat pancreas
  concentration at 4 h: 1580 ng/mL
  concentration at 6 h: 470 ng/mL
  concentration at 2 h: 9710 ng/mL
[5]; rat spleen concentration
  2 h/6 h Ratio: 3.46
[5]; rat spleen
  concentration at 4 h: 4440 ng/mL
  concentration at 6 h: 2210 ng/mL
  concentration at 2 h: 7660 ng/mL
[5]; rat testicles concentration
  2 h/6 h Ratio: 8.32
[5]; rat testicles
  concentration at 4 h: 330 ng/mL
  concentration at 6 h: 80 ng/mL
  concentration at 2 h: 700 ng/mL
[5]; rat thymus concentration
  2 h/6 h Ratio: 2.02
[5]; rat thymus
  concentration at 4 h: 6000 ng/mL
  concentration at 6 h: 3590 ng/mL
  concentration at 2 h: 7250 ng/mL
[5]
  tissue levels and clearance from tissues after 2-hour IV infusion: Slower clearance
